Results: ChEMBL document CHEMBL5620382, “Fluoroindole chalcone analogues targeting the colchicine binding site of tubulin for colorectal oncotherapy” (Eur J Med Chem, 2023)
The source made the active and inactive calls. No cut-off for these calls is given here.

Legend:
[1] = test system: HCT-116; test: Cytotoxicity against human HCT-116 cells assessed as growth inhibition measured after 48 hrs by CCK-8 assay; format: functional
[2] = test system: HCT-116; test: Antiproliferative activity against human HCT116 cells assessed as inhibition of proliferation measured after 24 hrs by CCK-8 assay; format: functional, cell-based; conditions: HCT-116, 24 h
[3] = test system: CT26; test: Antiproliferative activity against mouse CT26 cells assessed as inhibition of proliferation measured after 24 hrs by CCK-8 assay; format: functional, cell-based; conditions: CT26, 24 h
[4] = test system: PC-12; test: Antiproliferative activity against rat PC12 cells assessed as inhibition of proliferation at 2.5 to 20 nM measured after 24 hrs by CCK-8 assay; format: toxicity, cell-based; conditions: pc-12, 24 h, 0.02 µM, dose 2.5-20 nM
[5] = test system: HCT-116; test: Antiproliferative activity against human HCT-116 cells assessed as dead cells at 2.5 to 20 nM measured after 24 hrs by Calcein-AM/PI staining based immunofluorescence analysis; format: functional, cell-based; conditions: dose 2.5-20 nM
[6] = test system: HCT-116; test: Anti-tumor activity against human HCT116 cells xenografted in BALB/c mouse assessed as inhibition of tumor growth at 1.5 to 3 mg/kg, ip thrice a week for three weeks; format: functional, organism-based; conditions: dose 1.5-3 mg/kg, time 3.0 weeks
[7] = test system: HCT-116; test: Anti-tumor activity against human HCT-116 cells xenografted in BALB/c mouse assessed as apoptosis in tumor section at 3 mg/kg, ip thrice a week for three weeks by TUNEL staining based assay; format: functional, organism-based; conditions: time 3.0 weeks
[8] = Toxicity in BALB/c mouse xenografted with human HCT-116 cells assessed as organ toxicity at 3 mg/kg, ip thrice a week for three weeks by […]; format: organism-based; conditions: in vivo, 504 h, time 3 weeks
[9] = test system: CT26; test: Induction of cell cycle arrest in mouse CT26 cells […] assessed as accumulation of cells at G2/M phase at 2.5 to 10 nM by flow cytometry analysis; format: functional, cell-based; conditions: dose 2.5-10 nM
[10] = molecular target: T1, Tubulin (Homo sapiens) (UniProt P68371+Q9H4B7+P0DPH7+P68366+Q13509+Q71U36+P04350+Q3ZCM7+P07437+P68363+Q9BQE3+Q6PEY2+Q13885+Q9BVA1+Q9BUF5); test: Induction of microtubule stabilization in human HCT-116 cells at […] using 1:300 ratio of cell lysate/pronase incubated for 2 hrs by drug affinity reactive target stabilization (DARTS) assay; format: subcellular
[11] = molecular target: T1, Tubulin (Homo sapiens); test: Stabilization of microtubule in human HCT-116 cells at […] incubated for 1 hrs by CETSA; format: cell-based
[12] = molecular target: Tubulin; test: Binding affinity to wild type tubulin (unknown origin) by MST analysis; format: protein-complex assay, Homo sapiens
[13] = molecular target: T1, Tubulin (Homo sapiens); test: Inhibition of tubulin polymerization (unknown origin); format: protein-complex assay; conditions: dose 12.5-100 µM
[14] = molecular target: T1, Tubulin (Homo sapiens); test: Disruption of microtubule assembly in human HCT-116 cells assessed as reduced/disorganized microtubule network measured after 24 hrs by high-resolution microscopy; format: cell-based
[15] = test system: HCT-116; test: Induction of endoplasmic reticulum (ER) stress in human HCT-116 cells assessed as organelle vacuoles at 10 to 20 nM measured after 24 hrs by transmission electron microscope (TEM) analysis; format: functional, cell-based; conditions: dose 10-20 nM
[16] = test system: HCT-116; test: Induction of endoplasmic reticulum (ER) stress in human HCT-116 cells assessed as rough long-linear and irregularly dilated with locally verified expansion at 10 to 20 nM measured after 24 hrs by transmission electron microscope (TEM) analysis; format: functional, cell-based; conditions: dose 10-20 nM
[17] = test system: CT26; test: Induction of endoplasmic reticulum (ER) stress in mouse CT26 cells assessed as organelle vacuoles at 10 to 20 nM measured after 24 hrs by transmission electron microscope (TEM) analysis; format: functional, cell-based; conditions: dose 10-20 nM
[18] = test system: HCT-116; test: Induction of endoplasmic reticulum (ER) stress in human HCT-116 cells assessed as increase p-PERK expression at 10 to 20 nM measured after 24 hrs by Western blot analysis; format: functional, cell-based; conditions: dose 10-20 nM
[19] = test system: HCT-116; test: Induction of endoplasmic reticulum (ER) stress in human HCT-116 cells assessed as increase p-eIF2alpha expression at 10 to 20 nM measured after 24 hrs by Western blot analysis; format: functional, cell-based; conditions: dose 10-20 nM
[20] = test system: CT26; test: Induction of endoplasmic reticulum (ER) stress in mouse CT26 cells assessed as increase p-PERK expression at 10 to 40 nM measured after 24 hrs by Western blot analysis; format: functional, cell-based; conditions: dose 10-40 nM
[21] = test system: CT26; test: Induction of endoplasmic reticulum (ER) stress in mouse CT26 cells assessed as increase p-eIF2alpha expression at 10 to 40 nM measured after 24 hrs by Western blot analysis; format: functional, cell-based; conditions: dose 10-40 nM
[22] = test system: CT26; test: Induction of endoplasmic reticulum (ER) stress in mouse CT26 cells assessed as increase p-IRE1alpha expression at 10 to 40 nM measured after 24 hrs by Western blot analysis; format: functional, cell-based; conditions: dose 10-40 nM
[23] = test system: CT26; test: Induction of endoplasmic reticulum (ER) stress in mouse CT26 cells assessed as upregulation of cleaved-caspase 3 at 10 to 40 nM measured after 24 hrs by Western blot analysis; format: functional, cell-based; conditions: dose 10-40 nM
[24] = test system: HCT-116; test: Cytotoxicity against human HCT-116 cells assessed as growth inhibition measured after 24 hrs in presence of GSK2606414 PERK inhibitor by CCK-8 assay; format: functional, cell-based
[25] = test system: CT26; test: Induction of mitochondrial damage in mouse CT26 cells at 10 to 40 nM measured after 24 hrs by transmission electron microscope (TEM) analysis; format: functional, cell-based; conditions: dose 10-40 nM
[26] = test system: HCT-116; test: Cytotoxicity against human HCT-116 cells assessed as growth inhibition at 1.25 to 20 uM measured after 24 hrs in presence of ROS scavenger NAC by CCK-8 assay; format: functional, cell-based; conditions: dose 1.25-20 µM
[27] = test system: CT26; test: Induction of mitochondrial dysfunction in mouse CT26 cells assessed as change in mitochondrial membrane potential (MMP) by JC-1 fluorescence assay; format: functional, cell-based; conditions: dose 2.5-40 µM
[28] = test system: HCT-116; test: Induction of endoplasmic reticulum (ER) stress in human HCT-116 cells assessed as increase in ROS level at 10 nM measured after 24 hrs by fluorescent analysis (reference value: 12%); format: functional
[29] = test system: CT26; test: Induction of endoplasmic reticulum (ER) stress in mouse CT26 cells assessed as increase in ROS level at 2.5 nM measured after 24 hrs by fluorescent analysis (reference value: 14%); format: functional
[30] = test system: CT26; test: Induction of endoplasmic reticulum (ER) stress in mouse CT26 cells assessed as increase in ROS level at 5 nM measured after 24 hrs by fluorescent analysis (reference value: 14%); format: functional
[31] = test system: Colon cancer organoid; test: Antitumor activity against patient-derived Colorectal cancer organoid model assessed as inhibition of organoid growth by immunofluorescence assay; format: functional, tissue-based; conditions: Homo sapiens
[32] = Toxicity in C57BL/6-APCmin/+ mouse model assessed as change in body weight at 3 mg/kg, ip treated for 45 days; format: organism-based; conditions: in vivo, 1080 h, time 45 day
[33] = Toxicity in C57B/6-APCmin/+ mouse model assessed as organ toxicity at 3 mg/kg, ip treated for 45 days by H and E staining; format: organism-based; conditions: in vivo, 1080 h, time 45 day
[34] = test system: Mus musculus; test: Antitumor activity against C57B/6-APCmin/+ mouse model assessed as increase in phosphorylation of eIF2alpha in tumors at 3 mg/kg, ip treated for 45 days relative to control; format: functional, organism-based; conditions: time 45.0 day
[35] = test system: Mus musculus; test: Antitumor activity against C57B/6-APCmin/+ mouse model assessed as increase in phosphorylation of IRE1alpha in tumors at 3 mg/kg, ip treated for 45 days relative to control; format: functional, organism-based; conditions: time 45.0 day

**Q.** For `COc1cc(C(=O)/C(C)=C/c2c[nH]c3cc(F)ccc23)cc(OC)c1OC`, which GI50 [1] is on record?
**A.** 79 nM

**Q.** What about the IC50 [2] of the same compound?
**A.** 4.52 nM

**Q.** And the IC50 [3]?
**A.** 18.7 nM

**Q.** And the Activity [4]?
**A.** Non-Toxic

**Q.** And the Activity [5]?
**A.** Active

**Q.** What about the Activity [6] of the same compound?
**A.** Active

**Q.** What about the Activity [7] of the same compound?
**A.** Active

**Q.** And the Activity [8]?
**A.** Non-Toxic

**Q.** What about the Activity [9] of the same compound?
**A.** Active

**Q.** And the Activity [10]?
**A.** Active

**Q.** And the Activity [11]?
**A.** inactive

**Q.** What about the Kd [12] of the same compound?
**A.** 136 nM

**Q.** What about the inhibition [13] of the same compound?
**A.** Dose-Dependent Effect

**Q.** What about the Activity [14] of the same compound?
**A.** Active

**Q.** And the Activity [15]?
**A.** Active

**Q.** What about the Activity [16] of the same compound?
**A.** Active

**Q.** And the Activity [17]?
**A.** Active

**Q.** What about the Activity [18] of the same compound?
**A.** Active

**Q.** And the Activity [19]?
**A.** Active

**Q.** And the Activity [20]?
**A.** Active

**Q.** What about the Activity [21] of the same compound?
**A.** Active

**Q.** And the Activity [22]?
**A.** Active

**Q.** What about the Activity [23] of the same compound?
**A.** Active

**Q.** What about the Activity [24] of the same compound?
**A.** inactive

**Q.** What about the Activity [25] of the same compound?
**A.** Active

**Q.** And the Activity [26]?
**A.** inactive

**Q.** And the Activity [27]?
**A.** Dose-Dependent Effect

**Q.** What about the Activity [28] of the same compound?
**A.** 73.8%

**Q.** What about the Activity [29] of the same compound?
**A.** 14.5%

**Q.** What about the Activity [30] of the same compound?
**A.** 15%

**Q.** What about the IC50 [31] of the same compound?
**A.** 2.06 nM

**Q.** What about the Activity [32] of the same compound?
**A.** Non-Toxic

**Q.** What about the Activity [33] of the same compound?
**A.** Non-Toxic

**Q.** What about the Activity [34] of the same compound?
**A.** Active

**Q.** And the Activity [35]?
**A.** Active
